Reference: patent US4258184A, “Cephalosporin derivatives” (Meiji Seika Kaisha Ltd., priority 1976, dated 1981)
Values after ≈ are worked out from the molar mass of the structure shown. Where two headings read alike, the source gives them in different places.

Assays:
[1] = system: Proteus morganii Kono; experiment: Minimum prohibiting/inhibition concentration by agar plate dilution method; assay type: cell-based; settings: Morganella morganii
From the text: (§1) Minimum prohibiting concentration (γ/ml)
(§2) by means of agar plate dilution method
(§3) Minimum inhibition concentration (γ/ml) by means
(§4) of agar plate dilution method

[2] = system: Salmonella enteriditis No. 11; experiment: as above; assay type: cell-based
From the text: as §1, §2, §3, §4

[3] = system: Salmonella typhi O-901-W; experiment: as above; assay type: cell-based; settings: Salmonella enterica
From the text: as §1, §2, §3, §4

[4] = system: Staphylococcus aureus Smith S-424; experiment: as above; assay type: cell-based
From the text: as §1, §2, §3, §4

[5] = system: Vibrio parahaemolyticus K-5; experiment: as above; assay type: cell-based
From the text: as §1, §2, §3, §4

[6] = system: Klebsiella pneumoniae; experiment: Minimum inhibition concentration by agar plate dilution method; assay type: cell-based; settings: Table 2
From the text: as §3, §4

[7] = system: Staphylococcus aureus Smith No. 26; experiment: as above; assay type: cell-based; settings: read-out: Minimum inhibition concentration
From the text: as §3, §4

[8] = system: Bacillus subtilis ATCC 6633; experiment: Minimum prohibiting concentration by agar plate dilution method; assay type: cell-based
From the text: as §1, §2

[9] = system: Enterobacter species C73-17; experiment: as above; assay type: cell-based
From the text: as §1, §2

[10] = system: Escherichia coli C73-1; experiment: as above; assay type: cell-based
From the text: as §1, §2

[11] = system: Escherichia coli K-12 IAM 1264; experiment: as above; assay type: cell-based; settings: IAM1264, Table 1
From the text: as §1, §2

[12] = system: Escherichia coli NIHJ JC-2; experiment: as above; assay type: cell-based
From the text: as §1, §2

[13] = system: Proteus species C73-25; experiment: as above; assay type: cell-based; settings: read-out: Minimum prohibiting concentration
From the text: as §1, §2

[14] = system: Proteus species C73-34; experiment: as above; assay type: cell-based; settings: read-out: Minimum prohibiting concentration
From the text: as §1, §2

[15] = system: Pseudomonas aeruginosa IAM 1007; experiment: as above; assay type: cell-based
From the text: as §1, §2

[16] = system: Pseudomonas species C73-2; experiment: as above; assay type: cell-based; settings: C732, Table 1
From the text: as §1, §2

[17] = system: Pseudomonas species C73-83; experiment: as above; assay type: cell-based
From the text: as §1, §2

[18] = system: Serratia species MS-2; experiment: as above; assay type: cell-based
From the text: as §1, §2

[19] = system: Serratia species No. 2; experiment: as above; assay type: cell-based
From the text: as §1, §2

[20] = system: Staphylococcus aureus 209p JC-1; experiment: as above; assay type: cell-based; settings: read-out: Minimum prohibiting concentration
From the text: as §1, §2

[21] = system: Staphylococcus aureus No. 26; experiment: as above; assay type: cell-based
From the text: as §1, §2

[22] = system: Vibrio parahaemolyticus K-7; experiment: as above; assay type: cell-based
From the text: as §1, §2

[23] = Toxicity, peritoneal administration to mice; assay type: in vivo; settings: 6 mice, administered peritoneally, dosage amount of 200 mg/l kg
From the text: The toxicity of the compounds according to this invention is excellently low. […] As is clear from above, the compounds according to this invention are not only low in toxicity and excellent in anti-biotic activity but also have a prolonged action after administration. Therefore, they show excellent infection cure effect and infection-defense effect in before-or after-administration and in less dosage in comparison with known cephalosporin derivatives, for example, cephalothin, cefazolin or cephaloridine.

[24] = Table 2, agar plate dilution method, Proteus morganii Kono, read-out: Minimum inhibition concentration
[25] = read-out: Minimum inhibition concentration
[26] = K5, Table 2, agar plate dilution method, Vibrio parahaemolyticus K-5, read-out: Minimum inhibition concentration
[27] = ATCC6633, Table 1, agar plate dilution method, Bacillus subtilis ATCC 6633, read-out: Minimum prohibiting concentration
[28] = C7317, Table 1, agar plate dilution method, Enterobacter species C73-17, read-out: Minimum prohibiting concentration
[29] = C731, Table 1, agar plate dilution method, Escherichia coli C73-1, read-out: Minimum prohibiting concentration
[30] = NIHJJC2, Table 1, agar plate dilution method, Escherichia coli NIHJ JC-2, read-out: Minimum prohibiting concentration
[31] = Table 1, agar plate dilution method, Proteus species C73-25
[32] = Table 1, agar plate dilution method, Proteus species C73-34
[33] = IAM1007, Table 1, agar plate dilution method, Pseudomonas aeruginosa IAM 1007, read-out: Minimum prohibiting concentration
[34] = C7383, Table 1, agar plate dilution method, Pseudomonas species C73-83, read-out: Minimum prohibiting concentration
[35] = MS2, Table 1, agar plate dilution method, Serratia species MS-2, read-out: Minimum prohibiting concentration
[36] = Table 1, agar plate dilution method, Serratia species No. 2, read-out: Minimum prohibiting concentration
[37] = Table 1, agar plate dilution method, Staphylococcus aureus 209p JC-1
[38] = Table 1, agar plate dilution method, Staphylococcus aureus No. 26, read-out: Minimum prohibiting concentration
[39] = K7, Table 1, agar plate dilution method, Vibrio parahaemolyticus K-7, read-out: Minimum prohibiting concentration
[40] = Table 1, agar plate dilution method, Proteus morganii Kono, read-out: Minimum prohibiting concentration
[41] = Table 1, agar plate dilution method, Salmonella enteriditis No. 11, read-out: Minimum prohibiting concentration
[42] = read-out: Minimum prohibiting concentration
[43] = SMITHS424, Table 1, agar plate dilution method, Staphylococcus aureus Smith S-424, read-out: Minimum prohibiting concentration
[44] = K5, Table 1, agar plate dilution method, Vibrio parahaemolyticus K-5, read-out: Minimum prohibiting concentration
[45] = Staphylococcus aureus, NO.26, read-out: Minimum prohibiting concentration
[46] = Salmonella, NO.11, read-out: Minimum prohibiting concentration
[47] = Table 2, agar plate dilution method, Salmonella enteritidis N0. 11, read-out: Minimum inhibition concentration
[48] = Table 2, agar plate dilution method, Staphylococcus aureus Smith No. 26
[49] = Escherichia coli, NIHJJC2, read-out: Minimum prohibiting concentration
[50] = Serratia, MS2, read-out: Minimum prohibiting concentration

| SMILES | MIC [1, 24] [µg/mL] | MIC [3, 25] [µg/mL] | MIC [5, 26] [µg/mL] | MIC [6] [µg/mL] | MIC [8, 27] [µg/mL] | MIC [9, 28] [µg/mL] | MIC [10, 29] [µg/mL] | MIC [11] [µg/mL] | MIC [12, 30] [µg/mL] | MIC [13, 31] [µg/mL] | MIC [14, 32] [µg/mL] | MIC [15, 33] [µg/mL] | MIC [16] [µg/mL] | MIC [17, 34] [µg/mL] | MIC [19, 36] [µg/mL] | MIC [20, 37] [µg/mL] | MIC [22, 39] [µg/mL] | MIC [3, 42] [µg/mL] | MIC [4, 43] [µg/mL] | MIC [5, 44] [µg/mL] | also measured |
| --- | --- | --- | --- | --- | --- | --- | --- | --- | --- | --- | --- | --- | --- | --- | --- | --- | --- | --- | --- | --- | --- |
| Cc1ccc(-c2ccc(C(=O)N[C@@H](C(=O)NC3C(=O)N4C(C(=O)O)=C(CSc5nnnn5C)CS[C@H]34)c3ccc(O)cc3)c(O)n2)cc1 (stereo partly drawn) [Example 56, 7-{D-(-)-α-[2-hydroxy-6-(p-tolyl)pyridine-3-carbonylamino]-p-hydroxyphenylacetamido}-3-(1-methyl-1,2,3,4-tetrazole-5-ylthiomethyl)-3-cephem-4-carboxylic acid] | 12.5 (≈ 18.1 µM) | 1.56 (≈ 2.26 µM) | 25 (≈ 36.3 µM) | 25 (≈ 36.3 µM) |  |  |  |  |  |  |  |  |  |  |  |  |  |  |  |  | MIC [2, 25]: 1.56 µg/mL (≈ 2.26 µM); MIC ([4]; Staphylococcus aureus, SMITHS424, read-out: Minimum inhibition concentration): 1.56 µg/mL (≈ 2.26 µM); MIC ([7]; Staphylococcus aureus): 6.25 µg/mL (≈ 9.07 µM) |
| Cc1ccc(-c2ccc(C(=O)N[C@@H](C(=O)NC3C(=O)N4C(C(=O)O)=C(CSc5nnc(C(N)=O)s5)CS[C@H]34)c3ccccc3)c(O)n2)cc1 (stereo partly drawn) [Example 2, 7-{D(-)-α-[2-hydroxy-6-(p-tolyl)pyridine-3-carbonylamino]phenylacetamido}-3-(5-carbamoyl-1,3,4-thiadiazol-2-ylthiomethyl)-3-cephem-4-carboxylic acid] |  |  |  |  | 1.56 (≈ 2.17 µM) | 50 (≈ 69.7 µM) | 25 (≈ 34.8 µM) | 6.25 (≈ 8.71 µM) | 25 (≈ 34.8 µM) | 25 (≈ 34.8 µM) | 12.5 (≈ 17.4 µM) | 100 (≈ 139 µM) | 100 (≈ 139 µM) | 100 (≈ 139 µM) | 100 (≈ 139 µM) | 0.78 (≈ 1.09 µM) | 12.5 (≈ 17.4 µM) | 3.13 (≈ 4.36 µM) | 0.78 (≈ 1.09 µM) | 25 (≈ 34.8 µM) | MIC [18, 35]: 50 µg/mL (≈ 69.7 µM); MIC [21, 38]: 6.25 µg/mL (≈ 8.71 µM); MIC [1, 40]: 100 µg/mL (≈ 139 µM); MIC [2, 41]: 0.39 µg/mL (≈ 0.543 µM); mortality [23]: any mouse did not die |
| Cc1nnc(SCC2=C(C(=O)O)N3C(=O)[C@@H](NC(=O)Cn4cnnn4)[C@H]3SC2)s1 [Cefazolin Na, reference compound] |  |  |  |  | 0.2 (≈ 0.44 µM) | 50 (≈ 110 µM) | 6.25 (≈ 13.8 µM) | 3.13 (≈ 6.89 µM) | 6.25 (≈ 13.8 µM) |  | 12.5 (≈ 27.5 µM) | > 100 | > 100 | > 100 | > 100 | 0.1 (≈ 0.22 µM) | 12.5 (≈ 27.5 µM) | 3.13 (≈ 6.89 µM) | 0.78 (≈ 1.72 µM) | 6.25 (≈ 13.8 µM) | MIC [13]: 3.13 µg/mL (≈ 6.89 µM); MIC [18, 35]: > 100 µg/mL; MIC [21, 45]: 3.13 µg/mL (≈ 6.89 µM); MIC [1, 40]: > 100 µg/mL; MIC [2, 46]: 3.13 µg/mL (≈ 6.89 µM) |
| Cc1ccc(-c2ccc(C(=O)N[C@@H](C(=O)NC3C(=O)N4C(C(=O)O)=C(CSc5nnnn5C)CS[C@H]34)c3ccccc3)c(O)n2)cc1 (stereo partly drawn) [Example 57, 7-{D-(-)-α-[2-hydroxy-6-(p-tolyl)pyridine-3-carbonylamino]-phenylacetamido}-3-(1-methyl-1,2,3,4-tetrazole-5-ylthiomethyl)-3-cephem-4-carboxylicacid] | 100 (≈ 149 µM) | 6.25 (≈ 9.29 µM) | 25 (≈ 37.2 µM) | 50 (≈ 74.3 µM) |  |  |  |  |  |  |  |  |  |  |  |  |  |  |  |  | MIC [2, 47]: 3.13 µg/mL (≈ 4.65 µM); MIC ([4]; SMITHS424, Table 2, agar plate dilution method, Staphylococcus aureus Smith S-424, read-out: Minimum inhibition concentration): 12.5 µg/mL (≈ 18.6 µM); MIC [7, 48]: 50 µg/mL (≈ 74.3 µM) |
| CC1(C)S[C@@H]2[C@H](NC(=O)C(C(=O)O)c3ccccc3)C(=O)N2[C@H]1C(=O)O (some centres unmarked) [Carbenicillin disodium, reference compound] |  | 12.5 | > 100 | 25 | 0.39 | > 100 | 25 | 12.5 |  | 50 | 50 | > 100 | > 100 | > 100 | 50 | 0.39 | 50 | 12.5 | 0.39 | > 100 | MIC [12, 49]: 12.5 µg/mL; MIC [18, 50]: 12.5 µg/mL; MIC [21, 38]: 25 µg/mL; MIC [1, 25]: 12.5 µg/mL; MIC [1, 42]: 12.5 µg/mL; MIC [2, 41]: 50 µg/mL; MIC [2, 47]: 50 µg/mL; MIC [7, 48]: 25 µg/mL |
| Cc1ccc(-c2ccc(C(=O)N[C@@H](C(=O)NC3C(=O)N4C(C(=O)[O-])=C(CSc5nnc(C(N)=O)s5)CS[C@H]34)c3ccc(O)cc3)c(O)n2)cc1.[Na+] (stereo partly drawn) [Example 8, sodium 7-{D(-)-α-[2-hydroxy-6-(p-tolyl)pyridine-3-carbonylamino]-p-hydroxyphenylacetamido}-3-(5-carbamoyl-1,3,4-thiadiazol-2-ylthiomethyl)-3-cephem-4-carboxylate] |  |  |  |  |  |  |  | 1.56 |  |  |  |  | 50 |  |  |  |  | 1.56 |  |  | MIC ([8]; Bacillus subtilis, ATCC6633, read-out: Minimum prohibiting concentration): 0.78 µg/mL; MIC ([9]; Enterobacter, C7317, read-out: Minimum prohibiting concentration): 12.5 µg/mL; MIC ([10]; Escherichia coli, C731, read-out: Minimum prohibiting concentration): 6.25 µg/mL; MIC [12, 49]: 12.5 µg/mL; MIC [13]: 50 µg/mL; MIC [14]: 12.5 µg/mL; MIC ([15]; Pseudomonas aeruginosa, IAM1007, read-out: Minimum prohibiting concentration): 100 µg/mL; MIC ([17]; Pseudomonas, C7383, read-out: Minimum prohibiting concentration): 100 µg/mL; MIC [18, 50]: 50 µg/mL; MIC ([19]; Serratia, NO.2, read-out: Minimum prohibiting concentration): 50 µg/mL; MIC ([20]; Staphylococcus aureus, 209P): 0.2 µg/mL; MIC [21, 45]: 3.13 µg/mL; MIC ([22]; Vibrio parahaemolyticus, K7, read-out: Minimum prohibiting concentration): 3.13 µg/mL; MIC [1, 42]: 25 µg/mL; MIC [2, 46]: 0.78 µg/mL; MIC ([4]; Staphylococcus aureus, SMITHS424, read-out: Minimum prohibiting concentration): 0.39 µg/mL; MIC ([5]; Vibrio parahaemolyticus, K5, read-out: Minimum prohibiting concentration): 3.13 µg/mL |
